In BindingDB's records for doi:10.1016/j.ejmech.2020.112893 (China Pharmaceutical University, 2021):
pIC50: −log10 of the molar value.

Test: Antagonist activity at PAR4 in human platelet-rich plasma assessed as inhibition of gamma-thrombin-induced platelet aggregation preincubated for 5 mins followed by gamma-thrombin stimulation

pIC50	Structure (SMILES)
8.68	COc1cc(OCc2nc(-c3ccc(C(=O)N(C)C)cc3)sc2C)c2cc(-c3cn4nc(OC)sc4n3)oc2c1 [US9688695, 66]
5.59	CSc1nn2cc(-c3cc4ccccc4o3)nc2s1 [US9862730, Example 1]
